How the values were obtained:
GST-S6K11-365 = assay: Surface plasmon resonance, S6K1 binding to tail peptides; design: species or system rat; settings: K144N versus wt
Procedure: FIG. 13. The tail phosphate synergistically enhances the ability of the HM phosphate to activate S6K, dependent on the tail phosphate-binding site. (A) The kinase activity of purified kinase domain of S6K1 (S6K11-364), pre-phosphorylated by PDK1 in the activation loop, was determined in the presence of increasing concentrations of synthetic S6K1 tail peptide (residues 366-395) that was either non-phosphorylated (S371/T389), phosphorylated at Ser371 (pS371/T389) or Thr389 (5371/pT389) or phosphorylated at both sites (pS371/pT389). (B) The kinase activity of S6K11-364 and S6K11-364K144N, either pre-phosphorylated or not by PDK1, was determined in the absence or presence of 90 μM S371/pT389 or pS371/pT389. (C) pS371/pT389 S6K1 tail peptide was biotinylated and used to coat streptavidin Sensor Chips. The chips were thereafter analyzed for binding to purified GST-S6K11-365 or GST-56K11-365K144N. (A-C) Experiments were repeated at least 3 times and activity data (expressed as percent) are means±SD.
Sixty 146 cm^2 dishes with COST cells were co-transfected with pEBG-2T-S6K1-365 and pCMV5-myc-PDK1 (ratio 3:1) using calcium phosphate precipitation or with pEBG-2T-PKCζ and pCMV5-myc-PDK1 (ratio 3:1) using Fugene HD according to the manufacturers Instructions. Two days after transfection, the cells were harvested in lysis buffer as described above. […]

[1] = molecular target: T1, Thr221-phosphorylated S6K11-364 (Rattus norvegicus, UniProt P67999); assay: S6K1 in vitro reconstitution kinase assay with tail peptides; format: biochemical
T1 construct: Purified HA-S6K1-364 was incubated with synthetic S6K1 (rat) tail peptides; made in house; host or cells: COS7, co-transfected with myc-PDK1; anti-HA immunoprecipitate
T1 sequence (P67999 24-387): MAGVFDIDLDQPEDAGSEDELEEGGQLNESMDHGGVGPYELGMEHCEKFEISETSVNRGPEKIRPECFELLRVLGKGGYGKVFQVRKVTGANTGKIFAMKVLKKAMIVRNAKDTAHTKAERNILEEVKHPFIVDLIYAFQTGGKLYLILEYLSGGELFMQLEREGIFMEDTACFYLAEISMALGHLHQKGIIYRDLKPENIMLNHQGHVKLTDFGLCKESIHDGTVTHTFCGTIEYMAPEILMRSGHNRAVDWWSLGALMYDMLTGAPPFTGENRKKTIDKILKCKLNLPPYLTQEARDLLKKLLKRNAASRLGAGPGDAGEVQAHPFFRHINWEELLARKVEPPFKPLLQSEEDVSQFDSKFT
From the text: We established an in vitro reconstitution assay that could test a direct activation of the AGC kinase domain by the tail phosphate and characterize its cooperation with the HM and activation loop phosphates. The deletion mutant S6K11-364, which contains the kinase domain, but lacks the region of the tail containing the tail site and the HM as well as the C-terminal autoinhibitory domain, was expressed and purified from COS7 cells, either non-phosphorylated or phosphorylated at T221 in the activation loop, achieved by co-expression with PDK1. Purified S6K11-364 was then incubated with synthetic peptides of the S6K1 tail (residues 366-395: QTPVDS^371PDDSTLSESANQVFLGFT^389YVAPSV), which were either non-phosphorylated (S371/T389), phosphorylated at the tail site (pS371/T389), phosphorylated in the HM (S371/pT389) or phosphorylated at both sites (pS371/pT389). Subsequently, the kinase activity of S6K11-364 was determined.
Kinase assays for PKB, RSK, S6K, MSK were done as described previously (Frodin et al., 2002). […] After washing with 150 mM orthophosphoric acid, [^32P]phosphate incorporated into peptide substrate was quantified in an FLA-3000 apparatus (Fujifilm). […]

For “pS371/T389: synthetic S6K1 tail peptide (residues 366-395) phosphorylated at the tail site”, the “decrease of binding of S6K11-365 to peptide by the K144N mutation” value (GST-S6K11-365) was “about 40%” and the “stimulation of kinase activity (in words)” value [1] was “did not stimulate”.

— patent US20110152166A1, “METHOD OF MODULATION OF PROTEIN PHOSPHORYLATION-DEPENDENT CONFORMATIONAL TRANSITIONS WITH LOW MOLECULAR WEIGHT COMPOUNDS” (priority 2006, published 2011)
